Measured values: US20210386367A1, “DEVICES AND SYSTEMS FOR GASTROINTESTINAL MICROBIOME DETECTION AND MANIPULATION” (Progenity, Inc., priority 2018, published 2021)
Values after ≈ are worked out from the molar mass of the structure shown. “Also recorded” adds a separate entry of the source. Like-named read-outs stand apart in the source and are kept apart here.

Experiments:
Prevotella spp. = experiment: Agar dilution MIC, 30 clinical isolates; format: cell-based; conditions: for Mode: modal MIC
[1] = system: E. coli spontaneous mutants; experiment: Broth microdilution MIC of spontaneous mutants; format: cell-based, Escherichia coli; conditions: for broth microdilution MIC of selected colonies relative to parent strain: colonies selected at 4× and 8× the MIC
Description: Select isolates were subcultured onto agar containing drug at the selection concentration, were identified by MALDI, and were frozen for broth microdilution MIC testing as described below.
To determine whether colonies growing on drug selection plates had elevated MIC values to the selecting antibiotic, susceptibility testing by broth microdilution was conducted on isolated mutants following methodology recommended by CLSI (1), (2), and (3) “Performance Standards for Antimicrobial Susceptibility Testing; Twenty-Eighth Informational Supplement.,” CLSI document M100-S28, 2018.
All wells in columns 2 through 12 of a standard 96-well microdilution plate (Costar 3795) were filled with 150 μL of the appropriate diluent. Then, 300 μL of the test agents were added to the wells of column 1 of the plates at […] the highest final concentration to be tested. Serial two-fold dilutions were made across the rows through column 11 using the Biomek 2000. The wells of column 12 contained no drug and served as the growth control wells. This plate served as the “mother plate” from which selected MIC assay plates or “daughter plates” were made.
2 μL of drug solution from each well of a mother plate was added to each corresponding well of the daughter plate in a single step. A standardized inoculum of each aerobic test organism was prepared per CLSI methods to equal a 0.5 McFarland standard, followed by a dilution of 1:20 in MHB II. The plates were then inoculated with 10 μL of the diluted inoculum using the Biomek 2000 from low to high drug concentration, resulting in a final concentration of approximately 5×10^5 CFU/mL. An un-inoculated plate was incubated for the purpose of assessing solubility of the drug in the test media.
The plates for the aerobic tests were stacked 3-4 high, covered with a sterile lid on the top plate, and incubated aerobically at 35° C. for 18-20 hr. The MIC was recorded as the lowest concentration of drug that inhibited visible growth of the organism.

[2] = 30 Prevotella spp. clinical isolates
[3] = Escherichia coli, ATCC25922, E. coli ATCC 25922, selected on rifaximin 4X MIC, Colony A
[4] = Escherichia coli, ATCC25922, E. coli ATCC 25922, selected on rifaximin 4X MIC, Colony B
[5] = Escherichia coli, ATCC25922, E. coli ATCC 25922, selected on rifaximin 8X MIC, Colony A
[6] = Escherichia coli, ATCC25922, E. coli ATCC 25922 Parent (Table 52)
[7] = Escherichia coli, ATCC35218, E. coli ATCC 35218, selected on rifaximin 4X MIC, Colony A
[8] = Escherichia coli, ATCC35218, E. coli ATCC 35218, selected on rifaximin 4X MIC, Colony B
[9] = Escherichia coli, ATCC35218, E. coli ATCC 35218, selected on rifaximin 8X MIC, Colony A
[10] = Escherichia coli, ATCC35218, E. coli ATCC 35218, selected on rifaximin 8X MIC, Colony B
[11] = Escherichia coli, ATCC35218, E. coli ATCC 35218 Parent (Table 52)
[12] = Escherichia coli, E. coli MMX 1312, selected on ceftriaxone 4X MIC, Colony A
[13] = Escherichia coli, E. coli MMX 1312, selected on ceftriaxone 4X MIC, Colony B
[14] = Escherichia coli, E. coli MMX 1312, selected on ceftriaxone 4X MIC, Colony C
[15] = Escherichia coli, E. coli MMX 1312, selected on ceftriaxone 8X MIC, Colony A
[16] = Escherichia coli, E. coli MMX 1312, selected on ceftriaxone 8X MIC, Colony B
[17] = Escherichia coli, E. coli MMX 1312, selected on ceftriaxone 8X MIC, Colony C
[18] = Escherichia coli, E. coli MMX 1312, selected on rifaximin 4X MIC, Colony A
[19] = Escherichia coli, E. coli MMX 1312, selected on rifaximin 4X MIC, Colony B
[20] = Escherichia coli, E. coli MMX 1312, selected on rifaximin 8X MIC, Colony A
[21] = Escherichia coli, E. coli MMX 1312, selected on rifaximin 8X MIC, Colony B
[22] = Escherichia coli, E. coli MMX 1312 Parent
[23] = Escherichia coli, E. coli MMX 1312 Parent (Table 49)
[24] = Escherichia coli, E. coli MMX 1312 Parent (Table 52)
[25] = Escherichia coli, E. coli MMX 1312 mutant selected on meropenem 4X MIC, colony A
[26] = Escherichia coli, E. coli MMX 1312 mutant selected on meropenem 4X MIC, colony B
[27] = Escherichia coli, E. coli MMX 1312 mutant selected on meropenem 4X MIC, colony C
[28] = Escherichia coli, E. coli MMX 1312 mutant selected on meropenem 8X MIC, colony A
[29] = Escherichia coli, E. coli MMX 1312 mutant selected on meropenem 8X MIC, colony B
[30] = Escherichia coli, E. coli MMX 1312 mutant selected on meropenem 8X MIC, colony C

`C[C@@H](O)[C@H]1C(=O)N2C(C(=O)O)=C(S[C@@H]3CN[C@H](C(=O)N(C)C)C3)[C@H](C)[C@H]12` [meropenem] was tested, and the MIC range (Prevotella spp.) was no more than 0.008 to 0.3 mg/L, the isolates susceptible (Prevotella spp.) was “All were susceptible” and the “relative activity among drugs tested” value (Prevotella spp.) was “most active drug tested; also recorded: most active agent”. The “% S” value (Prevotella spp.; [2]) was 100%, the MIC50 (Prevotella spp.; [2]) was 0.06 mg/L (≈ 0.156 µM) and the MIC90 (Prevotella spp.; [2]) was 0.12 mg/L (≈ 0.313 µM). For the same compound, the MIC range (Prevotella spp.; [2]) was no more than 0.008 to 0.3 mg/L, the MIC50 (Prevotella spp.; Prevotella, read-out: MIC50) was 0.06 mg/L (≈ 0.156 µM) and the MIC90 (Prevotella spp.; Prevotella, read-out: MIC90) was 0.12 mg/L (≈ 0.313 µM). It also gave a Mode (Prevotella spp.; [2]) of 0.06 µg/mL, an MIC [1, 3] of 0.008 mg/L and an MIC [1, 4] of 0.008 mg/L. The MIC [1, 5] was 0.008 mg/L, the MIC [1, 6] was 0.03 mg/L and the MIC [1, 7] was 0.015 mg/L. The MIC [1, 8] was 0.015 mg/L, the MIC [1, 9] was 0.015 mg/L and the MIC [1, 10] was 0.015 mg/L. It also gave an MIC [1, 11] of 0.015 mg/L, an MIC [1, 12] of 0.015 mg/L and an MIC [1, 13] of 0.015 mg/L. It also gave an MIC [1, 14] of 0.03 mg/L, an MIC [1, 15] of 0.015 mg/L and an MIC [1, 16] of 0.03 mg/L. The MIC [1, 17] was 0.03 mg/L, the MIC [1, 18] was 0.008 mg/L and the MIC [1, 19] was 0.008 mg/L. For the same compound, the MIC [1, 20] was 0.015 mg/L, the MIC [1, 21] was 0.015 mg/L and the MIC [1, 22] was 0.015 mg/L. For the same compound, the MIC [1, 23] was 0.015 mg/L, the MIC [1, 24] was 0.015 mg/L and the MIC [1, 25] was 0.015 mg/L. For the same compound, the MIC [1, 26] was 0.015 mg/L, the MIC [1, 27] was 0.015 mg/L and the MIC [1, 28] was 0.015 mg/L. The MIC [1, 29] was 0.015 mg/L, the MIC [1, 30] was 0.015 mg/L and the “broth microdilution MIC of selected colonies relative to parent strain” value [1] was “consistent with that of the parent strain”.
`CO/N=C(\C(=O)N[C@@H]1C(=O)N2C(C(=O)O)=C(CSc3nc(=O)c(=O)[nH]n3C)CS[C@H]12)c1csc(N)n1` [ceftriaxone] was tested, and the MIC range (Prevotella spp.) was 0.12 to 128 mg/L, the isolates resistant (Prevotella spp.) was 33% and the “isolates with intermediate resistance” value (Prevotella spp.) was 20%. For the same compound, the “% I” value (Prevotella spp.; [2]) was 20%, the “% R” value (Prevotella spp.; [2]) was 33% and the “% S” value (Prevotella spp.; [2]) was 47%. The MIC50 (Prevotella spp.; [2]) was 32 mg/L (≈ 57.7 µM), the MIC90 (Prevotella spp.; [2]) was 64 mg/L (≈ 115 µM) and the MIC range (Prevotella spp.; [2]) was 0.12 to 128 mg/L. For the same compound, the MIC50 (Prevotella spp.; Prevotella, read-out: MIC50) was 32 mg/L (≈ 57.7 µM), the MIC90 (Prevotella spp.; Prevotella, read-out: MIC90) was 64 mg/L (≈ 115 µM) and the Mode (Prevotella spp.; [2]) was 64 µg/mL. The MIC [1, 3] was 0.03 mg/L, the MIC [1, 4] was 0.03 mg/L and the MIC [1, 5] was 0.03 mg/L. For the same compound, the MIC [1, 6] was 0.12 mg/L, the MIC [1, 7] was 0.03 mg/L and the MIC [1, 8] was 0.03 mg/L. For the same compound, the MIC [1, 9] was 0.06 mg/L, the MIC [1, 10] was 0.03 mg/L and the MIC [1, 11] was 0.03 mg/L. It also gave an MIC [1, 12] of 3 mg/L, an MIC [1, 13] of 4 mg/L and an MIC [1, 14] of 8 mg/L. For the same compound, the MIC [1, 15] was 3 mg/L, the MIC [1, 16] was 3 mg/L and the MIC [1, 17] was 4 mg/L. The MIC [1, 18] was 2 mg/L, the MIC [1, 19] was 2 mg/L and the MIC [1, 20] was 8 mg/L. For the same compound, the MIC [1, 21] was 8 mg/L, the MIC [1, 22] was 4 mg/L and the MIC [1, 23] was 4 mg/L. It also gave an MIC [1, 24] of 4 mg/L, an MIC [1, 25] of 4 mg/L and an MIC [1, 26] of 8 mg/L. The MIC [1, 27] was 4 mg/L, the MIC [1, 28] was 4 mg/L and the MIC [1, 29] was 4 mg/L. For the same compound, the MIC [1, 30] was 4 mg/L.
With `CO[C@H]1/C=C/O[C@@]2(C)Oc3c(C)c(O)c4c(O)c(c5c(nc6cc(C)ccn65)c4c3C2=O)NC(=O)/C(C)=C\C=C\[C@H](C)[C@H](O)[C@@H](C)[C@@H](O)[C@@H](C)[C@H](OC(C)=O)[C@@H]1C` [rifaximin] the MIC50 (Prevotella spp.) was 0.12 mg/L (≈ 0.153 µM), the MIC90 (Prevotella spp.) was 1 mg/L (≈ 1.27 µM) and the MIC50 (Prevotella spp.; [2]) was 0.12 mg/L (≈ 0.153 µM). For the same compound, the MIC90 (Prevotella spp.; [2]) was 1 mg/L (≈ 1.27 µM), the MIC range (Prevotella spp.; [2]) was 0.03 to 32 mg/L and the Mode (Prevotella spp.; [2]) was 0.12 µg/mL. For the same compound, the MIC ([1]; E. coli MMX 1312, selected on ceftriaxone 4X MIC, Colony A) was 3 mg/L, the MIC ([1]; E. coli MMX 1312, selected on ceftriaxone 4X MIC, Colony B) was 8 mg/L and the MIC ([1]; E. coli MMX 1312, selected on ceftriaxone 4X MIC, Colony C) was 8 mg/L. For the same compound, the MIC ([1]; E. coli MMX 1312, selected on ceftriaxone 8X MIC, Colony A) was 3 mg/L, the MIC ([1]; E. coli MMX 1312, selected on ceftriaxone 8X MIC, Colony B) was 3 mg/L and the MIC ([1]; E. coli MMX 1312, selected on ceftriaxone 8X MIC, Colony C) was 3 mg/L. For the same compound, the MIC ([1]; E. coli MMX 1312 Parent) was 8 mg/L, the MIC ([1]; E. coli MMX 1312 Parent (Table 49)) was 8 mg/L and the MIC ([1]; E. coli MMX 1312 mutant selected on meropenem 4X MIC, colony A) was 8 mg/L. It also gave an MIC ([1]; E. coli MMX 1312 mutant selected on meropenem 4X MIC, colony B) of 8 mg/L, an MIC ([1]; E. coli MMX 1312 mutant selected on meropenem 4X MIC, colony C) of 8 mg/L and an MIC ([1]; E. coli MMX 1312 mutant selected on meropenem 8X MIC, colony A) of 8 mg/L. For the same compound, the MIC ([1]; E. coli MMX 1312 mutant selected on meropenem 8X MIC, colony B) was 8 mg/L, the MIC ([1]; E. coli MMX 1312 mutant selected on meropenem 8X MIC, colony C) was 4 mg/L and the “broth microdilution MIC of selected colonies relative to parent strain” value [1] was “several-fold higher”.
`Cc1ncc([N+](=O)[O-])n1CCO` [MTZ] was tested, and the “% R” value (Prevotella spp.; [2]) was 3%, the “% S” value (Prevotella spp.; [2]) was 97% and the MIC50 (Prevotella spp.; [2]) was 1 mg/L (≈ 5.84 µM). For the same compound, the MIC90 (Prevotella spp.; [2]) was 8 mg/L (≈ 46.7 µM), the MIC range (Prevotella spp.; [2]) was 0.12 to 32 mg/L and the Mode (Prevotella spp.; [2]) was 1 µg/mL.
